Assay results from US12343331B2, “Methods and agents that stimulate mitochondrial turnover for treating disease” (Capacity Bio, Inc., priority 2021, dated 2025).
Non-standard residues stand in square brackets, D forms with d. Residues, ends and D or L forms follow the SMILES beside them. Nle = CCCC[C@H](N)C(=O)O

Tested on: INS1 cells
Test: Mitochondrial content / cellular mitochondrial mass by imaging
Format: cell-based
Conditions: INS1 cell line; 8 hours, 24 hours, and 72 hours; three concentrations; FIG. 9; normalized to DMSO
Experimental: Cells were cultured on coverslips inside a Petri dish filled with the appropriate culture medium or grown directly into a four-chamber glass bottom dish and cells were subsequently imaged on the LSM880. At least 30 cells per condition per experiment were collected, at least three separate experiments were performed for imaging clonal cells. Image analysis was performed in the CellProfiler™ software (cellprofiler.org) to measure mitophagic events. Individual mitochondrial fluorescence intensity and area were measured in CellProfiler™ and imported into Microsoft Excel®. Mitochondria smaller than 2 pixels in area were not included in final analyses. Images were subjected to top hat filtering followed by global threshold Otsu method to segment mitochondria. To assess amount of mitochondrial content, green fluorescence intensity of objects identified as mitochondrial structures were quantitated. Data has been normalized to the control treatment, dimethyl sulfoxide (DMSO).

SMILES | cellular mitochondrial mass (mitochondrial content)
CCCCOC(=O)NS(=O)(=O)c1ccc(OC(F)(F)F)cc1-c1ccc(Cn2ccnc2)cn1 [Compound 7] | stable
CCCC[C@H](NC(=O)[C@H](CCCNC(=N)N)NC(=O)[C@@H](N)CC(=O)O)C(=O)N[C@@H](Cc1ccc(O)cc1)C(=O)N[C@H](C(=O)N[C@@H](Cc1c[nH]cn1)C(=O)N1CCC[C@H]1C(=O)O)[C@@H](C)CC [Nle^3-A(1-7), Asp-Arg-Nle-Tyr-Ile-His-Pro] (H-DR[Nle]YIHP-OH) | stable
CC[C@H](C)[C@H](NC(=O)[C@H](Cc1ccc(O)cc1)NC(=O)[C@@H](NC(=O)[C@H](CCCNC(=N)N)NC(=O)[C@@H](N)CC(=O)O)C(C)C)C(=O)N[C@@H](Cc1c[nH]cn1)C(=O)N1CCC[C@H]1C(=O)O [angiotensin(1-7), H-Asp-Arg-Val-Tyr-Ile-His-Pro-OH] | stable
